Values of other authors as cited in patent US6800616B2, “Treatment of HIV infections” (SuperGen, Inc., priority 1998, dated 2004).

How the values were obtained:
T cells, CD4+ subset = settings: patients given DCF, FLU or 2CDA
[1] = target: T1, adenosine deaminase (ADA) (Homo sapiens, UniProt P00813)
T1 sequence (P00813 1-363): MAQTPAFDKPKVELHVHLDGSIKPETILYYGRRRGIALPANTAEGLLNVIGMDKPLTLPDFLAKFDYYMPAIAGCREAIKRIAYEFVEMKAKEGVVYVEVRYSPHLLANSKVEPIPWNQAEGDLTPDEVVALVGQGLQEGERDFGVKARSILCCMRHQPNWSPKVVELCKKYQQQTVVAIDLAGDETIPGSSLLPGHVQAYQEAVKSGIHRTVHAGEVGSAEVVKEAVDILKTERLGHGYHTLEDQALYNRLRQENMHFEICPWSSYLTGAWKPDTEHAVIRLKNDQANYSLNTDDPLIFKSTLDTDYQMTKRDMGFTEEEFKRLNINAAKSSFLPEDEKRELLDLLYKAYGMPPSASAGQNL

[2] = system: resting normal human lymphocytes

Row | Compound | frequency of opportunistic infections (T cells, CD4+ subset) | lymphopenia upon administration (T cells, CD4+ subset) | resistance to ADA [1] | toxicity to resting lymphocytes [2]
1 | Nc1nc(Cl)nc2c1ncn2[C@H]1C[C@H](O)[C@@H](CO)O1 [2CDA, 2-chloro-2′-deoxyadenosine] | increased frequency of opportunistic infections | prolonged lymphopenia predominating in T cells, especially in the CD4+ subset | rather resistant to the enzyme | selectively harm resting normal human lymphocytes
2 | OC[C@H]1O[C@@H](n2cnc3c2NC=NC[C@H]3O)C[C@@H]1O [DCF, 2′-deoxycoformycin] | increased frequency of opportunistic infections | prolonged lymphopenia predominating in T cells, especially in the CD4+ subset | – | –
3 | Nc1nc(F)nc2c1ncn2[C@@H]1O[C@H](COP(=O)(O)O)[C@@H](O)[C@@H]1O [FLU, fludarabine monophosphate] | increased frequency of opportunistic infections | prolonged lymphopenia predominating in T cells, especially in the CD4+ subset | rather resistant to the enzyme | –
